{"source": "patent US20220401428A1", "about": "“Method for Treatment of Alzheimer's Disease” (University of Kentucky Research Foundation, priority 2019, published 2022)", "key": {"[1]": {"test_system": "LRP1", "experiment": "LRP1 protein expression in rat brain microvascular ECs (Western blot, immunofluorescence)", "type": "cell-based", "settings": "ECs, 24 hours, Western blot", "description": "To study the role of miRNA signaling in amylin-induced suppression of endothelial LRP1 expression, transfection of rat brain microvascular ECs was used with miR-103-3p (MCR01039)[…](SEQ ID NO: 5), miR-107-3p (MCR01045)[…](SEQ ID NO: 6) and control (MCH00000) (https://www.abmgood.com/mirna-mimic-negative-control-mch00000.html). Antagomir miR-103-3p (IH-320345-05-0005)(SEQ ID NO: 5), miR-107-3p (IH-320348-05-0005)(SEQ ID NO: 6) and negative control (IN-001005-01-05) (https://www.biocompare.com/22445-RNA/4995709-miRIDIAN-microRNA-Hairpin-Inhibitor-Negative-Control-1-5-nmol/#productspecs) (Dharmacon Inc.) were used in an attempt to rescue LRP1 expression. All transfections were done using RNAiMAX (Invitrogen) as per manufacturer's recommended protocol. Briefly, ECs were plated at 50% confluency in 6-well plates followed by co-transfection with either 100 nM of 103-3p and 107-3p mimics or antagomirs along with their respective negative controls. After 12-hours, antagomir-treated cell groups were further treated with 10 uM human amylin for 24-hours. After 36-hours of transfection, cells were harvested for Western blot analysis.\nIn immunofluorescence experiments, formalin-fixed, paraffin-embedded human brain tissue was used and processed as previously described^16,18,39, brain capillaries from HIP and WT rats isolated as previously described^18. and cultured ECs. Anti-amylin (1:200; clone E5; SC-377530; Santa Cruz), anti-collagen IV (1:500; ab6586; abcam), anti-alpha smooth muscle actin-Alexa Fluor 405 (1:200; ab210128, abcam), anti-caveolin-1 (1:100; sc-894; Santa Cruz, Tex.), anti-LRP1 (1:500; sc-57351; Santa Cruz), anti-4HNE (1:200; ab46545; abcam) were the primary antibodies. Secondary antibodies were: Alexa Fluor 488 conjugated anti-mouse IgG (1:300; A11029; Invitrogen), Alexa Fluor 568 conjugated anti-rabbit IgG (1:200; A11036; Invitrogen), Alexa Fluor 568 conjugated anti-mouse IgG (1:300; A11004; Invitrogen). Nuclei were counterstained with DAPI mounting media. For triple staining of human brain tissues, smooth muscle actin-Alexa Fluor 405 antibody was added after staining with human amylin and collagen IV; DAPI free mounting media was used. For Thioflavin S staining, after secondary antibody incubation, brain slides were incubated in 0.5% Thioflavin S for 30 minutes at room temperature. Slides were then incubated for 3 minutes in 70% ethanol, 5 minutes in 0.2% Sudan black before washing and mounting. Immunocytochemistry was performed as described previously (39, 40).\nWestern blot analysis was performed on isolated brain capillaries, brain tissue homogenate and plasma from rats. Tissues were processed as described previously^16,18,28,39. RIPA buffer with 2% SDS was used to retrieve Aβ monomers from frozen brain samples^41. […]"}, "[2]": {"test_system": "LRP1 mRNA", "experiment": "LRP1 mRNA levels in ECs by qRT-PCR", "type": "cell-based", "settings": "10 μM, vs control cells and ECs incubated with rat amylin", "description": "(§1) Total RNA was isolated using RNAqueous total RNA isolation kit according to manufacturer's protocol (Invitrogen, AM1914). cDNA synthesis and amplification were done using iTaq Universal SYBR Green One-Step Kit (Biorad; 1725151) with the following primer sequences: LRP1: forward (Fwd) 5′-[…]-3′(SEQ ID NO: 7), reverse (Rev) 5′-[…]-3′(SEQ ID NO: 8); and GAPDH: Fwd 5′- […]-3′(SEQ ID NO: 9), Rev 5′-GTTTGCTCCAACCAACTGC-3′(SEQ ID NO: 10) (IDT, Inc, USA). For miRNA quantification, cDNA was synthesized from total RNA using miRNA cDNA synthesis kit with poly (A) polymerase (ABMgood, G902). cDNA was amplified using SYBR Green mastermix (Biorad) along with miRNA specific primers from (rno-miR-103-3p, MPR00332; rno-miR-107-3p, MPRO0335; RNU6 house Keeping gene, MP-r99998) (ABMgood). Data were analyzed using the 2^−ΔΔCt method, and experiments were normalized to GAPDH or U6 miRNA"}, "[3]": {"test_system": "rat brain microvascular endothelial cells", "experiment": "MTS cytotoxicity assay on ECs", "type": "cell-based", "settings": "500 nM, 1 μM, 5 μM and 10 μM, 24 hours", "description": "CellTiter 96® AQueous One Solution Cell Proliferation Assay (MTS) (Promega) was used to assess cytotoxicity of aggregated amylin on the EC monolayer."}, "[4]": {"test_system": "EC monolayer", "experiment": "Structural integrity of the EC monolayer in the in vitro BBB model (TEER, FITC-Dextran, morphology)", "type": "cell-based, rat", "settings": "10 μM, 24 hours", "description": "(§2) In vitro BBB model of Aβ42 transcytosis with amylin-induced stress at the blood side. An in vitro BBB model described previously^37 was used with modifications related to amylin deposition on the EC monolayer and consequent effects on the Aβ transport across the EC monolayer. Briefly, primary rat brain microvascular endothelial cells (Cell Applications Inc) were plated on 24-well Transwell-Clear inserts with 0.4 μm pore polycarbonate membrane (Costar, Corning, N.Y., USA) and primary rat brain astrocytes (Sigma) were cultured at the bottom wells. Barrier integrity was measured from the trans-endothelial electrical resistance (TEER) as described previously^37,38 using the EVOM2 meter with STX-3 electrodes (World Precision Instruments). Maximum TEER was achieved within 8-10 days in culture. BBB permeabilities to human amylin (10 μM; Anaspec; AS-60254-1), rat amylin (10 μM; American Peptide) and DMSO (1 mM; vehicle) were assessed using FITC-Dextran 4 kDa (Fisher Scientific) diluted in Hank's Balanced Salt Solution (HBSS) buffer with 0.1% BSA (HBSS-BSA) as a paracellular diffusion marker. Permeability coefficients were calculated using the formula; P=(ΔQ/Δt)/(A*C0), (ΔQ/Δt)=rate of FITC-Dextran change; A=surface area of insert (0.33cm^2); C0=Initial FITC-Dextran input."}, "[5]": {"test_system": "EC monolayer", "experiment": "Aβ42 transcytosis across the in vitro BBB model", "type": "cell-based, rat", "settings": "10 μM at the luminal side for 24 hours, then Aβ42-FAM at the abluminal side for 1 hour; vs vehicle; P<0.05", "description": "as §2, with “input. […]” for “input.”"}, "[6]": {"test_system": "rat brain microvascular ECs", "experiment": "Lipid peroxidation and ROS in cultured rat brain microvascular ECs", "type": "cell-based", "settings": "10 μM amylin, 24-hour incubation", "description": "Lipid peroxidation and ROS were measured in cultured rat brain microvascular ECs using previously published protocols^26,39."}, "[7]": {"test_system": "miR-103 and miR-107", "experiment": "miR-103 and miR-107 expression in ECs by qRT-PCR", "type": "cell-based, rat", "settings": "ECs incubated with human amylin", "description": "as §1"}}, "note": "Entries after “also recorded” stand apart in the source; their conditions may differ."}
{"substance": "human amylin", "values": [{"measurement": "reduction of LRP1 expression", "setting": "[1]; 10 μM", "result": "more than 50%"}, {"measurement": "LRP1 protein levels against concentration", "setting": "[1]; various concentrations (500 nM to 10 μM)", "result": "decreased with increasing concentrations"}, {"measurement": "LRP1 mRNA levels", "setting": "[2]", "result": "greatly elevated"}, {"measurement": "viability of the ECs", "setting": "[3]", "result": "not significant; also recorded: not affected"}, {"measurement": "EC monolayer morphology", "setting": "[4]", "result": "neither the intercellular space, as assessed from FITC-dextran permeability (FIG. S4C-D), nor EC monolayer morphology (FIG. 18E) were significantly altered"}, {"measurement": "TEER", "setting": "[4]", "result": "decreased"}, {"measurement": "intercellular space assessed from FITC-dextran (4 kDa) permeability", "setting": "[4]", "result": "neither the intercellular space, as assessed from FITC-dextran permeability (FIG. S4C-D), nor EC monolayer morphology (FIG. 18E) were significantly altered"}, {"measurement": "reduction of the Aβ transcytosis quotient", "setting": "[5]", "result": "20+5%"}, {"measurement": "generation of ROS", "setting": "[6]", "result": "increased generation of ROS"}, {"measurement": "lipid peroxidation of the EC membranes", "setting": "[6]", "result": "lipid peroxidation of the EC membranes"}, {"measurement": "miR-103 and miR-107 levels", "setting": "[7]", "result": "elevated levels of miR-103 and miR-107"}]}
